Data published in patent US9006394B2, “Peptide-presenting surfaces for long-term culture of pluripotent cells” (Wisconsin Alumni Research Foundation, priority 2008, dated 2015).
Ends that are not written are not given here.

Columns and labels:
[1] = test system: H9 hESCs
[2] = test system: hESCs (H1 and H9); assay: hESC culture for 6 days on peptide-AT SAM arrays, Oct-4 and SSEA-4 staining; assay type: cell-based, human
Experimental: hESCs were passaged to SAMs of peptide-AT conjugates on gold in mTeSR™1 optionally supplemented with 10 ng/ml heregulin-β1 (Peprotech; Rocky Hill, N.J.) and 5 μM Y-27632 (Calbiochem; San Diego, Calif.). […] Some surfaces presented peptide-AT conjugates of only vitronectin GBP (SEQ ID NO:1), fibronectin GBP (SEQ ID NO:2) or bone sialoprotein GBP (SEQ ID NO:3) Alternatively, some surfaces presented peptide-AT conjugates of only the integrin-binding peptide (SEQ ID NO:5), another bioactive peptide derived from fibronectin (SEQ ID NO:6), the FGF receptor binding peptide (SEQ ID NO:4), the laminin-derived bioactive peptide (SEQ ID NO:7), […] (SEQ ID NO: 8) or […] (SEQ ID NO: 9). Furthermore, some surfaces presented separate peptide-AT conjugates of the integrin-binding peptide (SEQ ID NO:5) and FGF receptor binding peptide (SEQ ID NO:4); the integrin-binding peptide (SEQ ID NO:5) and vitronectin GBP (SEQ ID NO:1); the integrin-binding peptide (SEQ ID NO:5) and bioactive peptide derived from fibronectin (SEQ ID NO:6); and the vitronectin GBP (SEQ ID NO:1) and […] (SEQ ID NO: 9). The density of the peptides on the surface varied from 0.5% to 25% (see, FIG. 1).
Images were collected with a Hamamatsu (Bridgewater, N.J.) Digital Camera mounted onto an Olympus IX81 Microscope. […]

[3] = test system: human ESCs (H9); assay: Cell adhesion (CellTiter-Glo) with soluble heparin or chondroitinase ABC; assay type: cell-based; details: 1 hour
Experimental: To determine the effect of a soluble GAG on hESC binding to GBPs, hESCs were plated onto Matrigel-coated surfaces, vitronectin-coated surfaces, or surfaces presenting the heparin-binding peptide […] (SEQ ID NO: 1) in the presence or absence of soluble heparin (0.5 mg/mL). After 1 hour, the surfaces were washed and the cells lysed. The cell lysates were used to determine approximate cell numbers using Cell Titer Glo (Promega). The ratio of the mean luminescence of the cell lysates of cells plated in the presence of heparin versus those without heparin was expressed as percent cell binding for each surface.
To determine if glycosaminoglycans (GAGs) are required for GBP binding, human ESCs (H9) cultured on Matrigel were dissociated using an enzyme-free, Hanks'-based cell dissociation buffer (Sigma) for 10-15 minutes. Cells were resuspended in DMEM/F12 (Gibco), or DMEM/F12 supplemented with 2 units/mL chondroitinase ABC (Sigma), or 500 ug/mL heparin (Sigma). Cells treated with the GAG-degrading enzymes were incubated for 1 hour in suspension at 37° C. Cell suspensions were seeded onto Matrigel-coated surfaces, recombinant vitronectin-coated surfaces (10 μg/mL, R&D Systems), or SAMs presenting the peptide […] (SEQ ID NO: 1) at a 5% surface density. After 1 hour, surfaces were washed 3 times with PBS and the cells were lysed with M-PER buffer (Thermo Fisher Scientific, Inc., Rockford, Ill.). The cell lysate was mixed with CellTiter-Glo (Promega) to determine the number of viable cells in culture based on the presence of ATP. The luminescence was measured on 20/20^n luminometer (Turner Biosystems, Inc., Sunnyvale Calif.). • Cell Growth: […]

## GKKQRFRHRNRKG (not fully specified (C-terminus); listed as Homo sapiens)
[1]
  karyotype by standard G banding: karyotypically normal
[2]
  cell attachment and self-renewal, presence of Oct-4 and SSEA-4 after 6 days: best supported both cell attachment and self-renewal
[3]; 2 units/mL chondroitinase ABC, 5% surface density
  adhesion of cells treated with chondroitinase ABC: decreased adhesion
[3]; soluble heparin 0.5 mg/mL
  hESC binding in the presence of soluble heparin: abrogate hESC binding
